Activity calls are given as the source filed them. Rule as the data show it: actives have a measured IC50 and inactives only a lower limit.
target: Envelope glycoprotein gp160 (Human immunodeficiency virus 1, UniProt Q6QLK5); assay: cell-free HIV fusion peptide-binding blockers – biochemical, uHTS, fluorescence dequenching, […] (AID 1986)
Sequence (Q6QLK5 whole entry, the tested form may be a part): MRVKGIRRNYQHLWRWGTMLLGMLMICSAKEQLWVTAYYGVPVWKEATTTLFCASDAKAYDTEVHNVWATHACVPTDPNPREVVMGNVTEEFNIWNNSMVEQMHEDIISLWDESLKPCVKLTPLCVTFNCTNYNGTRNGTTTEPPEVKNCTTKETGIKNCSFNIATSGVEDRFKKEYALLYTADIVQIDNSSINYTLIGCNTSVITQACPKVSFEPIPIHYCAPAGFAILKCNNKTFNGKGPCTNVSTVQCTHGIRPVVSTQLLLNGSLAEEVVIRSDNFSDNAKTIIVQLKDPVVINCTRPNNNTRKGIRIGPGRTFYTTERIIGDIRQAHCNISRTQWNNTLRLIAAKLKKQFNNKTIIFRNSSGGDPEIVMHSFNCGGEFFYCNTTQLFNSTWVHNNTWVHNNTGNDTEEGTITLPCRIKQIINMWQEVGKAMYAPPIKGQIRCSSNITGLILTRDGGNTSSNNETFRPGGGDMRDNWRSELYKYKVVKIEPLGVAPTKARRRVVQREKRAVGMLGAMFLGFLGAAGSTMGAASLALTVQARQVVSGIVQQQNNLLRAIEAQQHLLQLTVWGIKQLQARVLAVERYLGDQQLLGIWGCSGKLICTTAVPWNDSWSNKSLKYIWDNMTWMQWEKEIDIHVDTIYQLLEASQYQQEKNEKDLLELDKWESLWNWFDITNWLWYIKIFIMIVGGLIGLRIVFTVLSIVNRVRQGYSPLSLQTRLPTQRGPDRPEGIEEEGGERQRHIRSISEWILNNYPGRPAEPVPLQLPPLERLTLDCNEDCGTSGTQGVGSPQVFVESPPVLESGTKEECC

SMILES	IC50
N#Cc1c(-c2ccccc2)nc(SCc2ccc(Cl)cc2)[nH]c1=O	22.5 µM (active)
COc1ccc(/C=C2/SC(=O)N(CCCCCC(=O)Nc3ccccc3C(=O)O)C2=S)cc1	18 µM (active)
COc1cc(/C=N/Nc2ccc(Cl)c(C(=O)O)c2)ccc1OC(=O)c1ccccc1F	26.2 µM (active)
